In publication PMC3041857 (Journal of medicinal chemistry, 2011):

Assays:
[1] = system: PrP^Sc load in ScN2a-cl3 cells; type: cell-based, murine
[2] = mouse, in vivo

Molecule	Antiprion activity (in words) [1]	also measured
COc1ccc(-c2csc(Nc3cccc(C)n3)n2)cc1OC [Compound 4, [4-(3,4-dimethoxyphenyl)-thiazol-2-yl]-(6-methylpyridin-2-yl)-amine]	equipotent to 3	–
CNc1nc(-c2ccc(OC)c(OC)c2)cs1 [Compound 5, 4-(3,4-dimethoxyphenyl)-N-methyl-1,3-thiazol-2-amine]	without significant activity	–
Cc1ccc(Nc2nc(-c3cc(-c4ccccc4)no3)cs2)nc1 [Compound 27, (5-Methylpyridin-2-yl)-[4-(3-phenylisoxazol-5-yl)-thiazol-2-yl]-amine]	–	Mean brain concentration in excess of in vitro EC50 ([2]; FVB): ≤ 25 fold; Brain versus plasma concentration [2]: generally exceeded those in plasma
Cc1ccc(Nc2nc(C)cs2)nc1 [Compound 29, (5-Methylpyridin-2-yl)-(4-methylthiazol-2-yl)-amine]	inactive	–
FC(F)(F)Oc1ccc(-c2csc(Nc3cc4ccccc4cn3)n2)cc1 [Compound 31, Isoquinolin-3-yl-[4-(4-trifluoromethoxyphenyl)-thiazol-2-yl]-amine]	inactive	–
Cc1csc(Nc2cc3ccccc3cn2)n1 [Compound 36, Isoquinolin-3-yl-(4-methylthiazol-2-yl)-amine]	inactive	–
[4-(3,4-dimethoxyphenyl)-thiazol-2-yl]-pyridin-3-yl-amine [Compound 7]	–	EC50 ([1]; read-out: ScN2a-cl3 EC50): 1220 nM
